The values that follow come from US11192914B2, “Alkyne containing nucleotide and nucleoside therapeutic compositions and uses related thereto” (Emory University, priority 2016, dated 2021).

Like-named read-outs stand apart in the source and are kept apart here.

One data set has as its target T1, ZIKV NS5 RdRp (Zika virus, UniProt Q32ZE1).
T1 construct: activity of select analog triphosphates against the ZIKV NS5 RdRp
It is filed as biochemical. To be noted: analog triphosphates against ZIKV NS5 RdRp.

A short description of data set [1]: Cytotoxicity in Vero cells (XTT). In kind it is cell-based, African green monkey. The conditions noted are these: African green monkey. On the procedure: (§1) Vero cells were passaged in DMEM medium in T-75 flasks prior to use in the antiviral assay. On the day preceding the assay, the cells were split 1:2 to assure they were in exponential growth phase at the time of infection. The cells were resuspended at […] cells per well in tissue culture medium and added to flat bottom microtiter plates in a volume of […]. The plates were incubated at 37° C./5% CO2 overnight to allow for cell adherence. Separately, Zika virus was titrated in LLCMK2 cells to define the inoculum for use in the antiviral assay. Virus was diluted in DMEM medium such that the amount of virus added to each well in a volume of […] was the amount determined to achieve 85 to 95% cell killing at 5 days post-infection. Following incubation test plates were stained with XTT dye. XTT solution was prepared daily as a stock solution of 1 mg/mL in RPM11640. PMS solution was prepared at 0.15 mg/mL in PBS and stored in the dark at −20° C. XTT/PMS stock was prepared immediately before use by adding […] of PMS per mL of XTT solution. Fifty microliters of XTT/PMS was added to each well of the plate, and the plate was reincubated for 4 hours at 37° C. Plates were sealed with adhesive plate sealers ad shaken gently to mix the soluble formazan product, and the plate was read spectrophotometrically read 450/650 nm with a Molecular Devices Vmax plate reader. The raw data was collected from Softmax Pro and imported into a Microsoft Excel XLfit4 spreadsheet for analysis using four parameter curve fit calculations.

In data set [2] the test system is ZIKV. Nature of the data set: ZIKV infectious (cytoprotection, XTT) assay. It is filed as cell-based, Zika virus. To be noted: read-out: ZIKV EC50. On the procedure: as §1
The test system of data set [3] is ZIKV. Kind of data set: ZIKV infectious (cytoprotection, XTT) assay. It is filed as cell-based. The conditions noted are these: Zika virus.
Another data set deals with Vero cells. Kind of data set: Cytotoxicity in Vero cells (XTT). In kind it is cell-based, African green monkey. On the procedure: as §1
A further data set deals with DENV2 New Guinea C. Nature of the data set: Anti-Dengue virus cytoprotection assay. It is filed as cell-based, Dengue virus type 2. On the procedure: Cell Preparation—BHK21 cells (Syrian golden hamster kidney cells, ATCC catalog #CCL-I 0), Vero cells (African green monkey kidney cells, ATCC catalog #CCL-81), or Huh-7 cells (human hepatocyte carcinoma) were passaged in DMEM supplemented with 10% FBS, 2 mM L-glutamine, 100 U/mL penicillin, and 100 μg/mL streptomycin in T-75 flasks prior to use in the antiviral assay. On the day preceding the assay, the cells were split 1:2 to assure they were in an exponential growth phase at the time of infection. Total cell and viability quantification was performed using a hemocytometer and Trypan Blue dye exclusion. Cell viability was greater than 95% for the cells to be utilized in the assay. The cells were resuspended at 3×10^3 ([…] for Vero cells and Huh-7 cells) cells per well in tissue culture medium and added to flat bottom microtiter plates in a volume of 100 μL. The plates were incubated at 37° C./5% CO2 overnight to allow for cell adherence.
Virus Preparation—The Dengue virus type 2 New Guinea C strain was obtained from ATCC (catalog #VR-1584) and was grown in LLC-MK2 (Rhesus monkey kidney cells; catalog #CCL-7.1) cells for the production of stock virus pools. An aliquot of virus pretitered in BHK21 cells was removed from the freezer (−80° C.) and allowed to thaw slowly to room temperature in a biological safety cabinet. Virus was resuspended and diluted into assay medium (DMEM supplemented with 2% heat-inactivated FBS, 2 mM L-glutamine, 100 U/mL penicillin, and 100 μg/mL streptomycin) such that the amount of virus added to each well in a volume of 100 μL was the amount determined to yield 85 to 95% cell killing at 6 days post-infection.
Plate Format—Each plate contains cell control wells (cells only), virus control wells (cells plus virus), triplicate drug toxicity wells per compound (cells plus drug only), as well as triplicate experimental wells (drug plus cells plus virus).
Efficacy and Toxicity XTT-Following incubation at 37° C. in a 5% CO2 incubator, the test plates were stained with the tetrazolium dye XTT (2,3-bis(2-methoxy-4-nitro-5-sulfophenyl)-5-[(phenylamino)carbonyl]-2H-tetrazolium hydroxide). XTT-tetrazolium was metabolized by the mitochondrial enzymes of metabolically active cells to a soluble formazan product, allowing rapid quantitative analysis of the inhibition of virus-induced cell killing by antiviral test substances. XTT solution was prepared daily as a stock of 1 mg/mL in RPMI 1640. Phenazine methosulfate (PMS) solution was prepared at 0.15 mg/mL in PBS and stored in the dark at −20° C. XTT/PMS stock was prepared immediately before use by adding 40 μL of PMS per ml of XTT solution. Fifty microliters of XTT/PMS was added to each well of the plate and the plate was reincubated for 4 hours at 37° C. Plates were sealed with adhesive plate sealers and shaken gently or inverted several times to mix the soluble formazan product and the plate was read spectrophotometrically at 450/650 nm with a Molecular Devices Vmax plate reader.
Data Analysis —Raw data was collected from the Softmax Pro 4.6 software and imported into a Microsoft Excel spreadsheet for analysis. The percent reduction in viral cytopathic effect compared to the untreated virus controls was calculated for each compound. The percent cell control value was calculated for each compound comparing the drug treated uninfected cells to the uninfected cells in medium alone.

For the next data set, the system named is HRV-26. Kind of data set: Human rhinovirus assay (HRV-26). In kind it is cell-based. The conditions noted are these: Human rhinovirus sp., HRV26; Cell Line HeLa.
In data set [4] the test system is CC1(O)C(O)[C@@H](COP(=O)(O)OP(=O)(O)OP(=O)(O)O)O[C@H]1n1ccc(=O)[nH]c1=O. Kind of data set: purified protein, by the assay type. In kind it is biochemical, Zika virus.
For data set [5], the system named is CC1(O)C(O)[C@@H](COP(=O)(O)OP(=O)(O)OP(=O)(O)O)O[C@H]1n1cnc2c(=O)[nH]c(N)nc21. Nature of the data set: purified protein, by the assay type.
Data set [6] deals with CC1(O)C(O)[C@@H](COP(=O)(O)OP(=O)(O)OP(=O)(O)O)O[C@H]1n1ccc(N)nc1=O. Kind of data set: purified protein, by the assay type.
Data set [7] has as its system C#CC1(O)C(O)[C@@H](COP(=O)(O)OP(=O)(O)OP(=O)(O)O)O[C@H]1n1ccc(=O)[nH]c1=O. Kind of data set: purified protein, by the assay type.
The test system of data set [8] is C#CC1(O)C(O)[C@@H](COP(=O)(O)OP(=O)(O)OP(=O)(O)O)O[C@H]1n1cnc2c(N)ncnc21. Nature of the data set: purified protein, by the assay type.
Data set [9] has as its system CC1(O)C(O)[C@@H](COP(=O)(O)OP(=O)(O)OP(=O)(O)O)O[C@H]1n1cnc2c(N)ncnc21. Kind of data set: purified protein, by the assay type.
[10] abbreviates: Zika virus, Vero, ZIKV infectious assay, Vero cells.
[11] abbreviates: Huh-7, Cell Line Huh-7, read-out: ZIKV EC50.
Setting [12] is: Zika virus, Vero, Cell Line Vero.

T1 sequence (Q32ZE1 2517-3419): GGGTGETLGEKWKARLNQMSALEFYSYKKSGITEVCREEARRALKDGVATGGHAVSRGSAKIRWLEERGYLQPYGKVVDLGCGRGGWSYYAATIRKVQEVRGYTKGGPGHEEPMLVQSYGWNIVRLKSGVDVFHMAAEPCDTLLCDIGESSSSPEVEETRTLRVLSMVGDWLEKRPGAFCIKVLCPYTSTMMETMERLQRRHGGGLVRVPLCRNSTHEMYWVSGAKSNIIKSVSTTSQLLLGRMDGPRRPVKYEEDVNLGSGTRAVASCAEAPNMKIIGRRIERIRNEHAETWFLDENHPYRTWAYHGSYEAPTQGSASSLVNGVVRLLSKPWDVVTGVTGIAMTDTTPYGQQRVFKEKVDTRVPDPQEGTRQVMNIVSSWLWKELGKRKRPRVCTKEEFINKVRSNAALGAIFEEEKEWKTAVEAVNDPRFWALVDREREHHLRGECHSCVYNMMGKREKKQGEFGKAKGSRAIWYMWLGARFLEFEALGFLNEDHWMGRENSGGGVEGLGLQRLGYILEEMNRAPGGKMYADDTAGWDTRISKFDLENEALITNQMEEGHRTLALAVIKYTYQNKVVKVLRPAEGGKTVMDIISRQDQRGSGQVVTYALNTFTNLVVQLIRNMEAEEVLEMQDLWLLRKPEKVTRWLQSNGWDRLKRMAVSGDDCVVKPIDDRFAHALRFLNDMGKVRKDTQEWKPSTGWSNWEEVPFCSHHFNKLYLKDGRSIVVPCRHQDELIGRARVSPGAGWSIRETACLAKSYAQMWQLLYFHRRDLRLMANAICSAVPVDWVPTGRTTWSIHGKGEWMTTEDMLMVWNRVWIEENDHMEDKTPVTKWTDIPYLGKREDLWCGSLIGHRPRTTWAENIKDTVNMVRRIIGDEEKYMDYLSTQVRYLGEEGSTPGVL

As to `C#CC1(O)C(O)[C@@H](COP(=O)(O)OP(=O)(O)OP(=O)(O)O)O[C@H]1n1cnc2c(N)ncnc21` (some centres unmarked), on ZIKV NS5 RdRp, the “ZIKV Polymerase Assay Discrimination” value amounted to 5.

In the case of `CC1(O)C(O)[C@@H](COP(=O)(O)OP(=O)(O)OP(=O)(O)O)O[C@H]1n1ccc(N)nc1=O` (some centres unmarked), the “ZIKV Polymerase Assay Discrimination” value at ZIKV NS5 RdRp was determined as 7.

With `CC1(O)C(O)[C@@H](COP(=O)(O)OP(=O)(O)OP(=O)(O)O)O[C@H]1n1cnc2c(=O)[nH]c(N)nc21` (some centres unmarked), the “ZIKV Polymerase Assay Discrimination” value at ZIKV NS5 RdRp came out at 13. On the same count and under the same terms, the same measure for `CC1(O)C(O)[C@@H](COP(=O)(O)OP(=O)(O)OP(=O)(O)O)O[C@H]1n1ccc(=O)[nH]c1=O` (some centres unmarked): 53; for `CC1(O)C(O)[C@@H](COP(=O)(O)OP(=O)(O)OP(=O)(O)O)O[C@H]1n1cnc2c(N)ncnc21` (some centres unmarked): 12. Same read-out and setting: the value for `C#CC1(O)C(O)[C@@H](COP(=O)(O)OP(=O)(O)OP(=O)(O)O)O[C@H]1n1ccc(=O)[nH]c1=O` (some centres unmarked) was 5. Consider `C#CC1(O)C(O)[C@@H](CO)O[C@H]1n1ccc2c(N)ncnc21` (some centres unmarked), for which the midpoint of cytotoxicity in [1], the CC50 at 5 days, lay at 35.4 µM. In addition, the EC50 in the data set on ZIKV [2] (setting [10]) stood at 0.34 µM. The molecule `CC1(O)C(O)[C@@H](CO)O[C@H]1n1ccc(N)nc1=O` (some centres unmarked) had a half-maximal cytotoxic concentration (CC50) at 5 days in data set [1] of 9.57 µM. Further, in the data set on ZIKV [2] (setting [10]), the EC50 was determined as 0.13 µM.

As to `CC1(O)C(O)[C@@H](CO)O[C@H]1n1cnc2c(=O)[nH]c(N)nc21` (some centres unmarked), the CC50 at 5 days in [1] was above 100 µM. In the data set with ZIKV [2] (setting [10]), the half-maximal effective concentration (EC50) worked out at 7.23 µM.

Molecule `CC(C)(C)C(=O)OCOP(=O)(OCOC(=O)C(C)(C)C)OC[C@H]1O[C@@H](n2ccc(=O)[nH]c2=O)C(C)(O)C1O` (some centres unmarked) yielded a CC50 at 5 days in data set [1] of 26.4 µM. Also, the EC50 in the data set with ZIKV [2] (setting [10]) is 3.57 µM. As to `C#C[C@@]1(O)[C@H](O)[C@@H](CO)O[C@H]1n1ccc(=O)[nH]c1=O`, the 50% effective concentration (EC50) with ZIKV [3] (setting [11]) and in the data set with ZIKV [2] (setting [12]) was above 100 µM throughout. With `C#C[C@@]1(O)[C@H](O)[C@@H](CO)O[C@H]1n1cc(F)c(=O)[nH]c1=O`, in the data set with ZIKV [3] (setting [11]), the EC50 was above 100 µM. Consider `C#C[C@@]1(O)[C@H](O)[C@@H](CO[P@@](=O)(N[C@@H](C)C(=O)OC(C)C)Oc2ccccc2)O[C@H]1n1cc(F)c(=O)[nH]c1=O`, for which the EC50 in the data set with ZIKV [3] (Huh-7, read-out: ZIKV EC50) was 13 µM; with ZIKV [2] (Zika virus, Vero), above 100 µM. With `C#CC1(O)C(O)[C@@H](COP(=O)(OCOC(=O)C(C)(C)C)OCOC(=O)C(C)(C)C)O[C@H]1n1cc(F)c(=O)[nH]c1=O` (some centres unmarked), the half-maximal effective concentration (EC50) in the data set on ZIKV [3] (setting [11]) came to 5.3 µM. Consider `CC1(O)C(O)[C@@H](CO)O[C@H]1n1cnc2c(N)ncnc21` (some centres unmarked) [drawing 675], for which, in the data set on Vero cells, the CC50 was above 100 µM. Besides, the EC50 with ZIKV [2] (ZIKV infectious assay, Vero cells) amounted to 2.46 µM. `CC1(O)C(O)[C@@H](CO)O[C@H]1n1cnc2c(N)ncnc21` (some centres unmarked) [drawing 678] came in with a CC50 at 5 days in data set [1] above 100 µM. Also, the concentration giving a half-maximal response (EC50) in the data set on ZIKV [2] (setting [10]) was 2.75 µM. For `C#CC1(O)C(O)[C@@H](COP(=O)(OCOC(=O)C(C)(C)C)OCOC(=O)C(C)(C)C)O[C@H]1n1ccc(=O)[nH]c1=O` (some centres unmarked) [drawing 679] the same measures were 11 µM and 1.06 µM. Take `C#C[C@@]1(O)[C@H](O)[C@@H](CO[P@@](=O)(N[C@@H](C)C(=O)OC(C)C)Oc2ccccc2)O[C@H]1n1ccc2c(N)ncnc21` [drawing 740]: the EC50 in the data set on DENV2 New Guinea C (DENV2, BHK-21, read-out: DENV2 New Guinea C EC50) amounted to 27.7 µM.

In the case of `C#C[C@@]1(O)[C@H](O)[C@@H](CO)O[C@H]1n1cnc2cnc(N)nc21` [drawing 741], the EC50 in the data set on DENV2 New Guinea C (DENV2, Vero, read-out: DENV2 New Guinea C EC50) was above 100 µM.

For the molecule `C#C[C@@]1(O)[C@H](O)[C@@H](CO[P@@](=O)(N[C@@H](C)C(=O)OC(C)C)Oc2ccccc2)O[C@H]1n1ccc(=O)[nH]c1=O` [drawing 742], the EC50 in the data set on HRV-26 was 3.22 µM. On the same count and under the same terms, the same measure for `C#C[C@@]1(O)[C@H](O)[C@@H](CO)O[C@H]1n1cnc2cnc(N)nc21` [drawing 743]: above 100 µM. Take `C#C[C@@]1(O)[C@H](O)[C@@H](CO[P@@](=O)(N[C@@H](C)C(=O)OC(C)C)Oc2ccccc2)O[C@H]1n1ccc2c(N)ncnc21` [drawing 744]: the EC50 in the data set on ZIKV [3] (Huh-7, read-out: ZIKV EC50) was 0.001 µM. As for `C#C[C@@]1(O)[C@H](O)[C@@H](CO[P@@](=O)(N[C@@H](C)C(=O)OC(C)C)Oc2ccccc2)O[C@H]1n1ccc(=O)[nH]c1=O` [drawing 746], the EC50 is 0.5 µM with ZIKV [3] (Huh-7, read-out: ZIKV EC50) and above 100 µM in the data set with ZIKV [2] (Zika virus, Vero). Take `C#C[C@@]1(O)[C@H](O)[C@@H](CO)O[C@H]1n1cnc2cnc(N)nc21` [drawing 747]: the 50% effective concentration (EC50) in the data set on ZIKV [3] (HeLa, Cell Line HeLa, read-out: ZIKV EC50) is above 100 µM. Consider `C#C[C@@]1(O)[C@H](O)[C@@H](CO)O[C@H]1n1cnc2cnc(N)nc21` [drawing 751], for which, in the data set with ZIKV [2] (setting [12]), the EC50 is above 100 µM.

As for ZIKV NS5 RdRp (Zika virus), the Km in data set [4] worked out at 72.82 µM; in data set [5] it was 2.82 µM; in [6] it was 1.45 µM; in [7], 6.59 µM; in data set [8], 1.26 µM; in data set [9], 3.03 µM.
